Reference: ChEMBL document CHEMBL3045939, “Synthesis and evaluation of fused pyrimidine derivatives as anti-inflammatory, antiproliferative and antimicrobial agents” (Med Chem Res, 2012)
In brackets after ≈: the same amount, converted by molar mass.

Assays:
HeLa = experiment: Cytotoxicity against Homo sapiens (human) HeLa cells after 24 hr by MTT assay; type: functional, cell-based
Staphylococcus aureus = experiment: Antimicrobial activity against Staphylococcus aureus ATCC 25923 after 24 hr by broth micro dilution assay; type: functional; details: ATCC 25923, 24 h
[1] = Cytotoxicity against Homo sapiens (human) Chang cells after 24 hr by MTT assay; type: functional, cell-based
Candida albicans = experiment: Antimicrobial activity against Candida albicans ATCC 24433 after 48 hr by broth micro dilution assay; type: functional; details: ATCC 24433, 48 h
Rattus norvegicus [2] = experiment: Anti-inflammatory activity in Rattus norvegicus Wistar albino (rat) assessed as carrageenan-induced paw volume at 100 mg/kg, po administered 1 hr prior to carrageenan-challenge measured at 5 hr (reference value: 1.24 +/- 0.0754 mm3); type: functional
HEp-2 = experiment: Cytotoxicity against Homo sapiens (human) Hep2 cells after 24 hr by MTT assay; type: functional, cell-based; details: HEp-2, 24 h
Rattus norvegicus [3] = experiment: Anti-inflammatory activity in Rattus norvegicus Wistar albino (rat) assessed as carrageenan-induced paw volume at 100 mg/kg, po administered 1 hr prior to carrageenan-challenge measured at 4 hr (reference value: 1.2825 +/- 0.0862 mm3); type: functional
Rattus norvegicus [4] = experiment: Anti-inflammatory activity in Rattus norvegicus Wistar albino (rat) assessed as carrageenan-induced paw volume at 100 mg/kg, po administered 1 hr prior to carrageenan-challenge measured at 1 hr (reference value: 1.2075 +/- 0.0405 mm3); type: functional
Aspergillus flavus = experiment: Antimicrobial activity against Aspergillus flavus ATCC 15517 after 48 hr by broth micro dilution assay; type: functional; details: ATCC 15517, 48 h
Escherichia coli = experiment: Antimicrobial activity against Escherichia coli ATCC 25922 after 24 hr by broth micro dilution assay; type: functional; details: ATCC 25922, 24 h
Pseudomonas aeruginosa = experiment: Antimicrobial activity against Pseudomonas aeruginosa ATCC 27853 after 24 hr by broth micro dilution assay; type: functional; details: ATCC 27853, 24 h
Rattus norvegicus [5] = experiment: Anti-inflammatory activity in Rattus norvegicus Wistar albino (rat) assessed as carrageenan-induced paw volume at 100 mg/kg, po administered 1 hr prior to carrageenan-challenge measured at 3 hr (reference value: 1.225 +/- 0.0484 mm3); type: functional
Rattus norvegicus [6] = experiment: Anti-inflammatory activity in Rattus norvegicus Wistar albino (rat) assessed as carrageenan-induced paw volume at 100 mg/kg, po administered 1 hr prior to carrageenan-challenge measured at 2 hr (reference value: 1.4175 +/- 0.1931 mm3); type: functional
Rattus norvegicus [7] = experiment: Anti-inflammatory activity in Rattus norvegicus Wistar albino (rat) assessed as inhibition of carrageenan-induced paw edema at 100 mg/kg, po administered 1 hr prior to carrageenan-challenge measured at 1 hr relative to control; type: functional

| Compound | IC50 (HeLa) | MIC (Staphylococcus aureus) | IC50 [1] | MIC (Candida albicans) | Activity (Rattus norvegicus [2]) | IC50 (HEp-2) | Activity (Rattus norvegicus [3]) | Activity (Rattus norvegicus [4]) | MIC (Aspergillus flavus) | MIC (Escherichia coli) | MIC (Pseudomonas aeruginosa) | Activity (Rattus norvegicus [5]) | Activity (Rattus norvegicus [6]) | inhibition in vivo at 100 mg/kg (Rattus norvegicus [7]) |
| --- | --- | --- | --- | --- | --- | --- | --- | --- | --- | --- | --- | --- | --- | --- |
| COc1ccc(-n2c(-c3ccccc3)nc3ccc(Cl)cc3c2=O)cc1 | < 50 µg/mL | 3.12 µg/mL (≈ 8.6 µM) | > 25 µg/mL | 12.5 µg/mL (≈ 34.5 µM) | 1.175 mm3 | 12.5 µg/mL (≈ 34.5 µM) | 1.14 mm3 | 1.12 mm3 | > 100 µg/mL | 1.56 µg/mL (≈ 4.3 µM) | 3.12 µg/mL (≈ 8.6 µM) | 1.21 mm3 | – | – |
| O=c1c2cc(Cl)ccc2nc(-c2ccccc2)n1-c1ccc(F)c(Cl)c1 | < 25 µg/mL | > 100 µg/mL | < 6.25 µg/mL | > 100 µg/mL | 1.25 mm3 | < 6.25 µg/mL | 1.3075 mm3 | 1.1875 mm3 | > 100 µg/mL | > 100 µg/mL | 100 µg/mL (≈ 260 µM) | 1.17 mm3 | 1.3525 mm3 | – |
| O=c1c2cc(Cl)ccc2nc(-c2ccccc2)n1Cc1ccc(F)cc1 | 41.5 µg/mL (≈ 114 µM) | 0.78 µg/mL (≈ 2.14 µM) | 17.9 µg/mL (≈ 49.2 µM) | 12.5 µg/mL (≈ 34.3 µM) | 1.2875 mm3 | 10.9 µg/mL (≈ 29.8 µM) | 1.24 mm3 | 1.1525 mm3 | 25 µg/mL (≈ 68.5 µM) | 1.56 µg/mL (≈ 4.28 µM) | 3.12 µg/mL (≈ 8.55 µM) | 1.135 mm3 | 1.285 mm3 | – |
| O=c1c2cc(Cl)ccc2nc(-c2ccccc2)n1Cc1ccc(Cl)cc1 | > 200 µg/mL | 0.78 µg/mL (≈ 2.05 µM) | > 50 µg/mL | 12.5 µg/mL (≈ 32.8 µM) | 1.1825 mm3 | > 50 µg/mL | 1.2325 mm3 | – | 25 µg/mL (≈ 65.6 µM) | 1.56 µg/mL (≈ 4.09 µM) | 3.12 µg/mL (≈ 8.18 µM) | 1.195 mm3 | 1.265 mm3 | 72.9% |
